Laboratory results as given in article PMC6651170, “New HSV-1 Anti-Viral 1′-Homocarbocyclic Nucleoside Analogs with an Optically Active Substituted Bicyclo[2.2.1]Heptane Fragment as a Glycoside Moiety” (Molecules, 2019).
In brackets after ≈: the same amount, converted by molar mass. Read-outs that look alike come from different tables or passages of the source.

Assays:
[1] = system: Influenza virus (Flu A, strain A/Puerto Rico/8/34 (H1N1)); experiment: microbe, parasite or virus in culture; assay type: cell-based; conditions: read-out: IC50 Influenza Virus
[2] = system: herpes simplex virus type 1 (HSV-1); experiment: microbe, parasite or virus in culture; assay type: cell-based; conditions: for IC50: read-out: IC50 Herpes Simplex Virus Type 1
[3] = system: human adenovirus type 5 (AdV5); experiment: microbe, parasite or virus in culture; assay type: cell-based; conditions: read-out: IC50 Human Adenovirus Type 5
Yellow Fever Virus = experiment: microbe, parasite or virus in culture; assay type: cell-based; conditions: read-out: IC50 Yellow Fever Virus
Chikungunya Virus = experiment: microbe, parasite or virus in culture; assay type: cell-based; conditions: read-out: IC50 Chikungunya Virus
Enterovirus 71 = experiment: microbe, parasite or virus in culture; assay type: cell-based; conditions: read-out: IC50 Enterovirus 71
cells [4] = system: cells
cells [5] = system: cells; remark: listed apart in the source
cells [6] = system: cells; remark: listed apart in the source
coxsackievirus B4 = conditions: cited from earlier work
VZV = conditions: cited from earlier work
HCMV = conditions: read-out: IC50 against HCMV; cited from earlier work
EpsteinBarr virus = conditions: read-out: IC50 against EpsteinBarr virus; cited from earlier work
VZV/TK^- strain = conditions: read-out: EC50 against VZV/TK- strain; cited from earlier work
cytomegalovirus AD169 = conditions: read-out: EC50 against cytomegalovirus AD169 strain; cited from earlier work
[7] = system: cytomegalovirus DAVIS 07/1; conditions: read-out: EC50 against cytomegalovirus DAVIS 07/1 strain; cited from earlier work
Molt4/C8 = conditions: cited from earlier work
L1210/0 = conditions: cited from earlier work
herpes = conditions: cited from earlier work
in vitro [8] = conditions: dog
in vitro [9] = conditions: African green monkey
in vitro [10] = experiment: in vitro
in vitro [11] = experiment: in vitro; remark: listed apart in the source
in vitro [12] = experiment: in vitro; remark: listed apart in the source
[13] = unidentified influenza virus, H1N1, MDCK, 48 h
[14] = Human alphaherpesvirus 1, Vero, 72 h
[15] = Human mastadenovirus C, Vero, 72 h
[16] = CC50 (Herpes Simplex Virus Type 1)

(1S,4S,5S,7R)-5-Chloro-7-((6-((4-hydroxyphenethyl)amino)-9H-purin-9-yl)methyl)bicyclo[2.2.1]heptan-2-ol [Compound 6j]
IC50 [1]: > 234 µM
activity against HSV-1 in words [2]: active against herpes
IC50 [2]: 15 ± 2 µM
IC50 [3]: > 70 µM
IC50 (Yellow Fever Virus): > 100 µM
IC50 (Chikungunya Virus): > 100 µM
IC50 (Enterovirus 71): 42 ± 3.2 µM
CC50 (MDCK cells): 467 ± 28 µM
CC50 (cells [4]): > 100 µM
CC50 (cells [5]): > 100 µM
CC50 (cells [6]): > 100 µM

OCC(Cc1ccccc1)Nc1ncnc2c1ncn2C1CC2C(Cl)CC1C2CO (centres unmarked) [Xc]
EC50 against coxsackievirus B4 (coxsackievirus B4): 0.6 µg/mL (≈ 1.4 µM)

O=c1[nH]c(=O)n(CC2(CO)CC2CO)cc1C=CBr (centres unmarked) [II]
anti-VZV activity, IC50 (VZV): 0.027 µg/mL

Nc1ncnc2c1ncn2/C=C1/C[C@H]1CO [III]
IC50 (HCMV): 1 to 2.1 µM
IC50 (EpsteinBarr virus): 0.2 µM

Nc1nc(Cl)c2nc[nH]c2n1 [VIII (6-Cl-2-aminopurine)]
EC50 (VZV/TK^- strain): 2.1 µM
EC50 (cytomegalovirus AD169): 0.44 µM
EC50 [7]: 0.39 µM

Nc1nc(O)c2ncn(COC(CO)CO)c2n1 [ganciclovir]
EC50 (cytomegalovirus AD169): 0.25 µM
EC50 [7]: 0.4 µM

Nc1nc(Cl)c2nc[nH]c2n1 [V (6-Cl-2-amino-purine)]
IC50 Molt4/C8, cytostatic activity (Molt4/C8): 13.2 µg/mL (≈ 77.8 µM)
IC50 L1210/0, cytostatic activity (L1210/0): 16.2 µg/mL (≈ 95.5 µM)

Nc1nc2c(ncn2/C=C2/C[C@H]2CO)c(=O)[nH]1 [IV]
IC50 (HCMV): 0.04 to 2.1 µM
IC50 (EpsteinBarr virus): 0.3 µM

Nc1nc2c(ncn2CC2(CO)CC2CO)c(=O)[nH]1 (centres unmarked) [I]
antiherpetic activity in words (herpes): extremely potent antiherpetic activity

CCOc1ncnc2c1ncn2C[C@H]1[C@@H]2CC(O)[C@H]1C[C@@H]2Cl (stereo partly drawn) [Compound 7b, (1S,4S,5S,7R)-5-Chloro-7-((6-ethoxy-9H-purin-9-yl)methyl)bicyclo[2.2.1]heptan-2-ol]
IC50 [1, 13]: > 929 µM
IC50 [2, 14]: 524 ± 63 µM
IC50 [3, 15]: > 929 µM
IC50 (Yellow Fever Virus; Yellow fever virus): > 100 µM
IC50 (Chikungunya Virus; Chikungunya virus): > 100 µM
IC50 (Enterovirus 71; Enterovirus A): > 100 µM
CC50 (in vitro [8]): > 929 µM
CC50 (in vitro [9]; [16]): > 929 µM
CC50 (in vitro [9]; CC50 (Human Adenovirus Type 5)): > 929 µM
CC50 (in vitro [10]): > 100 µM
CC50 (in vitro [11]): > 100 µM
CC50 (in vitro [12]): > 100 µM

CN1CCN(c2ncnc3c2ncn3C[C@H]2[C@@H]3CC(O)[C@H]2C[C@@H]3Cl)CC1 (stereo partly drawn) [Compound 6f, (1S,4S,5S,7R)-5-Chloro-7-((6-(4-methylpiperazin-1-yl)-9H-purin-9-yl)methyl)bicyclo[2.2.1]heptan-2-ol]
IC50 [1, 13]: 241 ± 30 µM
activity against HSV-1 in words [2]: active against herpes
IC50 [2, 14]: 28 ± 4 µM
IC50 [3, 15]: 105 ± 11 µM
IC50 (Yellow Fever Virus; Yellow fever virus): > 100 µM
IC50 (Chikungunya Virus; Chikungunya virus): > 100 µM
IC50 (Enterovirus 71; Enterovirus A): > 100 µM
CC50 (in vitro [8]): > 796 µM
CC50 (in vitro [9]; [16]): > 719 µM
CC50 (in vitro [9]; CC50 (Human Adenovirus Type 5)): > 796 µM
CC50 (in vitro [10]): > 100 µM
CC50 (in vitro [11]): > 100 µM
CC50 (in vitro [12]): > 100 µM
